How the values were obtained:
Format in all cases: in vivo
crabgrass = test: Test Example 14: herbicidal effect test by foliage treatment in upland field; conditions: 7 days after sowing, 120 g/10a, 14 days after treatment
Method: (§1) A pot having a size of 36 cm^2 was filled with field soil (alluvial soil) and after uniformly mixing the soil of the surface layer of 1 cm with 20 grains of each weed seed of crabgrass, Echinochloa crus-galli, Chenopodium album and Amaranthus viridis, the surface layer was pressed lightly. Seven Days after the sowing, an emulsifiable concentrate prepared according to Formulation Example 15 by using the compound shown in Table 12 below was diluted with water, and the water-diluted formulation was sprayed on the soil surface at a ratio of 100 liter per 10 are. The application rate of the active ingredient, by conversion, corresponded to 120 g per 10 are. Fourteen Days after the formulation treatment, the herbicidal effect was evaluated by the same criteria as in Test Example 11.

Chenopodium album = test: as above; conditions: 7 days after sowing, 120 g/10a, 14 days after treatment
Method: as §1

Lindernia pyxidaria [1] = test: Test Example 12: herbicidal effect test by treatment during growing period in paddy field; conditions: 120 g/10a; treatment seven days after sowing in flooded paddy pot; assessed 14 days after treatment
Procedure, shortened: (§2)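 Water-diluted emulsifiable concentrate added dropwise to flooded pots (~3 cm water) 7 d after sowing; rate 120 g active ingredient per 10 are. Weeds grown from 30 seeds each in puddled paddy soil under greenhouse conditions. Dry-weight suppression rate relative to untreated plots determined 14 d after treatment, duplicates.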

Scirpus juncoides [2] = test: as above; conditions: 120 g/10a; treatment seven days after sowing in flooded paddy pot; assessed 14 days after treatment
Procedure, shortened: as §2

Echinochloa crus-galli [3] = test: as above; conditions: 120 g/10a; treatment seven days after sowing in flooded paddy pot; assessed 14 days after treatment
Procedure, shortened: as §2

Monochoria vaginalis [4] = test: as above; conditions: 120 g/10a; treatment seven days after sowing in flooded paddy pot; assessed 14 days after treatment
Procedure, shortened: as §2

Lindernia pyxidaria [5] = test: Test Example 11: herbicidal effect test by soil treatment in paddy field; conditions: 120 g/10a active ingredient, 14 days after treatment
Procedure, shortened: (§3)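 Pre-emergence flooded-paddy test: the water-diluted emulsifiable concentrate, 120 g active ingredient per 10 are, was dripped into pots immediately after seeding, with water held at about 3 cm. Two replicate pots per rate; 14 days after treatment, plant dry weight versus untreated pots gave the weed suppression rate.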

Scirpus juncoides [6] = test: as above; conditions: 120 g/10a active ingredient, 14 days after treatment
Procedure, shortened: as §3

Echinochloa crus-galli [7] = test: as above; conditions: 120 g/10a active ingredient, 14 days after treatment
Procedure, shortened: as §3

Monochoria vaginalis [8] = test: as above; conditions: 120 g/10a active ingredient, 14 days after treatment
Procedure, shortened: as §3

Echinochloa crus-galli [9] = test: Test Example 14: herbicidal effect test by foliage treatment in upland field; conditions: 7 days after sowing, 120 g/10a, 14 days after treatment
Method: (§4) This test was performed with two replications per one formulation concentration plot, and 14 days after the formulation treatments, the weed suppression rate (%) was determined according to the following equation (Math. 2). Weed suppression rate (%)=(1−average dry weight (g) of plants in treated plots/average dry weight (g) of plants in untreated plots)×100 [Math. 2]
as §1

Amaranthus viridis = test: as above; conditions: 7 days after sowing, 120 g/10a, 14 days after treatment
Method: as §4, §1

Compound | herbicidal effect, Crabgrass (crabgrass) | herbicidal effect, Chenopodium album (Chenopodium album) | Weed suppression rate (%) Lindemia pyxidaria (Lindernia pyxidaria [1]) | Weed suppression rate (%) Scirpus juncoides (Scirpus juncoides [2]) | Weed suppression rate (%) Echinochloa crus-galli (Echinochloa crus-galli [3]) | Weed suppression rate (%) Monochoria vaginalis (Monochoria vaginalis [4]) | Weed suppression rate (%) Lindemia pyxidaria (Lindernia pyxidaria [5]) | Weed suppression rate (%) Scirpus juncoides (Scirpus juncoides [6]) | Weed suppression rate (%) Echinochloa crus-galli (Echinochloa crus-galli [7]) | Weed suppression rate (%) Monochoria vaginalis (Monochoria vaginalis [8]) | herbicidal effect, Echinochloa crus-galli (Echinochloa crus-galli [9]) | herbicidal effect, Amaranthus viridis (Amaranthus viridis)
CC(C)N(C(=O)n1cnn(S(=O)(=O)c2cccs2)c1=O)c1c(F)cc(F)cc1F [Compound 11-1026] | 90% | 70% | 80% | 100% | 100% | 100% | 100% | 100% | 100% | 100% | 90% | 30%
CC(C)N(C(=O)n1cnn(S(=O)(=O)c2c(F)c(F)c(F)c(F)c2F)c1=O)c1c(F)cc(F)cc1F [Compound 11-815] | 100% | 80% | 80% | 70% | 100% | 70% | 100% | 100% | 100% | 80% | 70% | 70%
CC(C)N(Cc1ccc(F)cc1F)C(=O)n1cnn(S(=O)(=O)c2cccs2)c1=O [Compound 11-1046] | 100% | 40% | 90% | 90% | 100% | 90% | 80% | 80% | 100% | 60% | 0% | 60%
C=CS(=O)(=O)n1ncn(C(=O)N(c2ccc(F)cc2F)C(C)C)c1=O [Compound 11-134] | 70% | 40% | 40% | 40% | 70% | 40% | 40% | 40% | 70% | 40% | 40% | 40%
CC(C)N(C(=O)n1cnn(S(=O)(=O)C2CCCCC2)c1=O)c1ccc(C(F)(F)F)cc1F [Compound 11-311] | 100% | 30% |  |  |  |  |  |  |  |  | 90% | 60%
CCN(CC)S(=O)(=O)n1ncn(C(=O)N(c2ccc(F)cc2F)C(C)C)c1=O [Compound 11-1099] | 90% | 80% |  |  |  |  |  |  |  |  | 80% | 90%
CC(C)N(C(=O)n1cnn(S(=O)(=O)c2ccc(C(C)(C)C)cc2)c1=O)c1ccc(F)cc1Cl [Compound 11-689] |  |  | 70% | 90% | 60% | 80% | 90% | 70% | 90% | 70% |  | 
CC(C)N(C(=O)n1cnn(S(=O)(=O)c2ccc(F)cc2)c1=O)c1ccc(Br)cc1Cl [Compound 11-486] |  |  | 70% | 60% | 60% | 70% | 90% | 80% | 90% | 80% |  | 
Cc1cc(F)ccc1N(C(=O)n1cnn(S(=O)(=O)C2CCCCC2)c1=O)C(C)C [Compound 11-307] |  |  | 70% | 60% | 90% | 60% | 70% | 80% | 80% | 70% |  | 
CC(C)N(C(=O)n1cnn(S(=O)(=O)c2c(F)cccc2F)c1=O)c1cccc(F)c1F [Compound 11-772] |  |  | 70% | 90% | 100% | 90% | 90% | 80% | 100% | 80% |  | 
Cc1cc(F)ccc1N(C(=O)n1cnn(S(=O)(=O)c2ccc(Cl)cc2)c1=O)C(C)C [Compound 11-601] |  |  | 70% | 60% | 60% | 70% | 80% | 60% | 70% | 80% |  | 
CC(C)N(C(=O)n1cnn(S(=O)(=O)c2ccc(Cl)cc2)c1=O)c1c(F)cc(F)cc1F [Compound 11-592] |  |  | 80% | 80% | 100% | 100% | 100% | 80% | 100% | 90% |  | 
CC(C)N(C(=O)n1cnn(S(=O)(=O)c2ccccc2Cl)c1=O)c1cccc(F)c1F [Compound 11-511] |  |  | 80% | 100% | 100% | 100% | 100% | 100% | 100% | 90% |  | 
